Test results: article PMC12363342, “Investigating the N-terminal linker histone H1 subtypes as substrates for JmjC lysine demethylases” (RSC Chemical Biology, 2025)
Square brackets hold non-standard residues; d marks the D form. Ends that are not written are not given here. Lys(Me3) = C[N+](C)(C)CCCC[C@H](N)C(=O)O

Tested on: KDM3C
Assay: LC-MS demethylation activity assay, KDM3C
Format: biochemical, human
Conditions: 2 μM KDM, 10 μM H1/H3 peptide, 10 μM FAS, 100 μM LAA, 20 μM 2OG, 50 mM HEPES pH 7.5, 2 h, room temperature, T (tri-) initial methylation state
How it was run: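 H1 isoform peptides (10 μM) were incubated 2 h at room temperature with 2 μM recombinant N-terminally His6-tagged catalytic domains in 50 mM HEPES pH 7.5 containing FAS (10 μM), ascorbate (100 μM) and 2OG (20 μM). Reactions were quenched with formic acid (1% final), and demethylation was analysed by LC-MS (Q-TOF).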

In the case of “KKKATK[Lys(Me3)]AAGAGAAK [Peptide H1.5K26me3, 15-mer linker histone H1.5 residues 20-34 peptide, tri-methylated K26]”, the “KDM3C demethylation activity, T” value is reported as “● [red]”.

With “KKKAA[Lys(Me3)]KAGGTPRKA [Peptide H1.2K25me3, 15-mer linker histone H1.2 residues 20-34 peptide, tri-methylated K25]” the “KDM3C demethylation activity, T” value was “● [red]”.

For “KKKAAK[Lys(Me3)]AGGTPRKA [Peptide H1.2K26me3, 15-mer linker histone H1.2 residues 20-34 peptide, tri-methylated K26]”, the “KDM3C demethylation activity, T” value was “● [red]”.

For “KKKAR[Lys(Me3)]SAGAAKRKA [Peptide H1.4K25me3, 15-mer linker histone H1.4 residues 20-34 peptide, tri-methylated K25]”, the “KDM3C demethylation activity, T” value was “● [red]”.

With “KKKA[Lys(Me3)]KAGATAGKRK [Peptide H1.3K24me3, 15-mer linker histone H1.3 residues 20-34 peptide, tri-methylated K24]” the “KDM3C demethylation activity, T” value was “● [red]”.
